Source: ChEMBL document CHEMBL4739717, “Methods of treating cartilage disorders through inhibition of clk and dyrk” (2020)

How the values were obtained:
[1] = Effect on Wnt signaling pathway in human SW480 cells harbouring TCF/LEF luciferase reporter gene and SP5-Luc reporter gene incubated for 36 to 48 hrs by luminescence assay; format: cell-based
[2] = Induction of chondrogenesis in human MSC assessed as maximum activity at 100 nM incubated for 6 days by rhodamine B and Nile red staining based imaging analysis relative to control; format: functional; settings: BMMSC, 144 h, time 6 day
[3] = molecular target: Dual specificity tyrosine-phosphorylation-regulated kinase 1A (Homo sapiens, UniProt Q13627); experiment: Inhibition of recombinant DYRK1A (unknown origin) using Ser/Thr 18 peptide as substrate incubated for 1 hr in presence of ATP by FRET assay
[4] = Induction of chondrogenesis in human MSC assessed as maximum activity at 30 nM incubated for 6 days by rhodamine B and Nile red staining based imaging analysis relative to control; format: functional; settings: BMMSC, 144 h, time 6 day
[5] = Inhibition of IL1-beta induced MMP3 expression levels in human chondrocytes assessed as MMP3 levels incubated for 2hrs followed by IL1-beta stimulation and measured after overnight incubation by LANCE assay; format: functional, cell-based; settings: Chondrocyte
[6] = Induction of chondrogenesis in human MSC assessed as incubated for 6 days by rhodamine B and Nile red staining based imaging analysis; format: functional; settings: bmmsc

| SMILES | EC50 [1] [nM] | EC50 [3] [nM] | EC50 [5] [nM] | EC50 [6] [nM] | Emax at 0.1 µM [2] [%] | Emax at 0.03 µM [4] [%] |
| --- | --- | --- | --- | --- | --- | --- |
| Cn1ncc(-c2ccc3cnc(NC(=O)c4cccc(CN5CCCC5)c4)cc3c2)c1CN1CCCCC1 | – | – | 1190 | – | – | 27.6 |
| c1cncc(-c2cnc3[nH]nc(-c4nc5c(-c6cccnc6)cncc5[nH]4)c3c2)c1 | > 10000 | 86 | – | – | 62.9 | – |
| CN1CCN(c2nccc3[nH]c(-c4n[nH]c5ncc(-c6cncc(NC(=O)C7CCCC7)c6)cc45)cc23)CC1 | > 10000 | 7 | – | – | 30.3 | – |
| CC(C)CC(=O)Nc1cncc(-c2cc3c(-c4cc5cccnc5[nH]4)n[nH]c3cn2)c1 | > 10000 | 13 | – | – | 40.4 | – |
| O=C(CC1CCNCC1)Nc1cncc(-c2ccc3[nH]nc(-c4cc5c(N6CCCCC6)nccc5[nH]4)c3n2)c1 | > 10000 | 6 | 1470 | – | – | 21.8 |
| CC(C)(C)CC(=O)Nc1cncc(-c2ccc3[nH]nc(-c4cc5c(-c6ccoc6)ccnc5[nH]4)c3c2)c1 | 890 | 20 | – | – | 21.2 | – |
| FC1(F)CCN(Cc2cncc(-c3ccc4[nH]nc(-c5cc6c(N7CCCCC7)ccnc6[nH]5)c4n3)c2)C1 | 5270 | 30 | – | – | 37.6 | – |
| Cc1nnc(-c2ccc3cnc(NC(=O)c4ccnc(N(C)C5CCN(C)CC5)c4)cc3c2)s1 | – | – | 2.7 | – | – | 25.7 |
| c1cnc2[nH]c(-c3n[nH]c4ccc(-c5cncc(OCCN6CCCC6)c5)cc34)cc2c1 | 3300 | 10 | – | – | 42.7 | – |
| Fc1cccc(-c2nccc3[nH]c(-c4n[nH]c5ccc(-c6cncc(CN7CCCCC7)c6)nc45)cc23)c1 | 3750 | 71 | – | – | 48 | – |
| CN1CCN(c2nccc3[nH]c(-c4n[nH]c5ccc(-c6cncc(NC(=O)c7ccccc7)c6)cc45)cc23)CC1 | 2140 | 16 | – | – | 34.6 | – |
| c1ncc(-c2ccc3[nH]nc(-c4cc5c(-c6ccoc6)nccc5[nH]4)c3c2)cn1 | 1910 | 33 | – | – | 40.2 | – |
| CN1CCN(c2cncc3[nH]c(-c4n[nH]c5ccc(-c6cncc(CNCc7ccccc7)c6)cc45)cc23)CC1 | 3290 | 7 | 329 | 30 | – | 101 |
| c1cc2[nH]c(-c3n[nH]c4ccc(-c5cncc(CN6CCCCC6)c5)cc34)cc2c(N2CCCCC2)n1 | 4210 | 32 | – | – | 48.1 | – |
| c1cc2[nH]c(-c3n[nH]c4ncc(-c5cncc(CN6CCCCC6)c5)cc34)cc2cn1 | 1540 | 7 | – | – | 39.7 | – |
| O=C(Nc1c[nH]nc1C(=O)Nc1cncc(-c2cccc(F)c2)c1)c1cncc(OC2CCNCC2)c1 | 1600 | 12 | 339 | – | – | 89.5 |
| O=C(Nc1cncc(-c2cc3c(-c4cc5c(-c6ccc(F)cc6)nccc5[nH]4)n[nH]c3cn2)c1)C1CC1 | 844 | 74 | – | 30 | – | 96.2 |
| O=C(Nc1cncc(-c2cnc3[nH]nc(-c4cc5c(-c6ccncc6)cncc5[nH]4)c3c2)c1)C1CCC1 | > 10000 | 4 | 17.9 | – | – | 43.5 |
| CN(C)Cc1cncc(-c2cc3c(-c4cc5c(-c6ccncc6)cncc5[nH]4)n[nH]c3cn2)c1 | > 10000 | 20 | – | 30 | – | 51.7 |
| CN(C)Cc1cncc(-c2cnc3[nH]nc(-c4cc5c(-c6ccccc6F)cncc5[nH]4)c3c2)c1 | 2490 | 12 | – | 30 | – | 60.9 |
| O=C(Nc1cncc(-c2cc3c(-c4cc5cnccc5[nH]4)n[nH]c3cn2)c1)C1CC1 | 1540 | 4 | – | 30 | – | 58.5 |
| CS(=O)(=O)NCc1cc(F)cc(-c2cncc3[nH]c(-c4n[nH]c5ccc(-c6cncnc6)nc45)cc23)c1 | 1030 | 76 | – | 10 | – | 106 |
| O=C(Nc1cncc(-c2cnc3[nH]nc(-c4cc5cnccc5[nH]4)c3c2)c1)c1ccccc1 | > 10000 | 2 | – | 30 | – | 69.9 |

Continued, in another order:

| EC50 [1] [nM] | EC50 [3] [nM] | EC50 [5] [nM] | EC50 [6] [nM] | SMILES | Emax at 0.1 µM [2] [%] | Emax at 0.03 µM [4] [%] |
| --- | --- | --- | --- | --- | --- | --- |
| 572 | 57 | – | – | Fc1cccc(-c2cncc3[nH]c(-c4n[nH]c5ncc(-c6cccnc6)cc45)cc23)c1 | 35.6 | – |
| 255 | 25 | – | – | CC(C)Nc1cncc(-c2ccc3[nH]nc(-c4cc5c(-c6cccnc6)ccnc5[nH]4)c3n2)c1 | 47.2 | – |
| 5.1 | 10 | – | – | CC(C)C(=O)Nc1cncc(-c2ccc3[nH]nc(-c4nc5c(-c6cccnc6)cncc5[nH]4)c3c2)c1 | 34.4 | – |
| 22.4 | 13 | – | – | Nc1cncc(-c2ccc3[nH]nc(-c4cc5c(-c6ccccn6)ccnc5[nH]4)c3c2)c1 | 46.1 | – |
| 554 | 34 | – | – | CS(=O)(=O)NCc1cc(F)cc(-c2cncc3[nH]c(-c4n[nH]c5ccc(-c6cncc(NC(=O)C7CCC7)c6)cc45)cc23)c1 | 14.5 | – |
| 1.8 | 15 | – | – | FC1(F)CCN(Cc2cncc(-c3ccc4[nH]nc(-c5nc6c(-c7ccsc7)cncc6[nH]5)c4c3)c2)C1 | 81.3 | – |
| 4 | 10 | 3000 | 30 | CC(C)C(=O)Nc1cncc(-c2ccc3[nH]nc(-c4nc5c(-c6ccccc6F)cncc5[nH]4)c3c2)c1 | – | 102 |
| 20 | 22 | – | – | FC1(F)CCN(Cc2cncc(-c3ccc4[nH]nc(-c5nc6c(N7CCCCC7)cncc6[nH]5)c4c3)c2)C1 | 80.1 | – |
| 45 | 27 | – | – | CCC(=O)Nc1cncc(-c2ccc3[nH]nc(-c4cc5c(-c6cccc(F)c6)cncc5[nH]4)c3c2)c1 | 33.5 | – |
| 260 | 6 | – | – | CC(C)C(=O)Nc1cncc(-c2ccc3[nH]nc(-c4cc5c(-c6cccnc6)cncc5[nH]4)c3c2)c1 | 34.5 | – |
| 670 | 21 | – | – | CC(C)Nc1cncc(-c2ccc3[nH]nc(-c4cc5c(-c6cccnc6)cncc5[nH]4)c3c2)c1 | 41.9 | – |
| 244 | 22 | – | – | CCC(=O)Nc1cncc(-c2ccc3[nH]nc(-c4cc5c(-c6cc(F)cc(CNS(C)(=O)=O)c6)cncc5[nH]4)c3c2)c1 | 29.4 | – |
| 57 | 10 | – | – | CN(C)Cc1cncc(-c2cnc3[nH]nc(-c4nc5c(-c6ccsc6)cncc5[nH]4)c3c2)c1 | 91.3 | – |
| 708 | 76 | – | – | FC1(F)CCN(Cc2cncc(-c3cnc4[nH]nc(-c5cc6c(-c7ccncc7)cccc6[nH]5)c4c3)c2)C1 | 29.2 | – |
| 48 | 9 | 3000 | 30 | CN(C)Cc1cncc(-c2cnc3[nH]nc(-c4nc5c(-c6cccs6)cncc5[nH]4)c3c2)c1 | – | 146 |
| 154 | 5 | – | 30 | CC(C)Nc1cncc(-c2cnc3[nH]nc(-c4nc5c(-c6cc(F)cc(NCCN(C)C)c6)nccc5[nH]4)c3c2)c1 | – | 82.9 |
| 85.7 | 4 | 35.5 | – | CN1CCN(c2nccc3[nH]c(-c4n[nH]c5cc(F)c(-c6cnn(C)c6)cc45)nc23)CC1 | – | 113 |
| 75 | 2 | – | 10 | O=C(Nc1cncc(-c2ccc3[nH]nc(-c4cc5cnccc5[nH]4)c3c2)c1)C1CCC1 | – | 213 |
